Data as given in publication PMC9154793, “Design, synthesis, and biological evaluation of triazole-pyrimidine-methylbenzonitrile derivatives as dual A2A/A2B adenosine receptor antagonists” (Journal of Enzyme Inhibition and Medicinal Chemistry, 2022).
Read-outs that look alike come from different tables or passages of the source.

Experiment: In vivo pharmacokinetics study in Balb/c mice
Conditions: for Cmax / Tmax / half-life / AUC(0-inf) / bioavailability / AUC(0-t): female, Balb/c, mouse, plasma; for bioavailability: oral 30 mg/kg vs i.v. 10 mg/kg, read-out: F (absolute bioavailability)
Experimental: The in vivo pharmacokinetic (PK) profiles of compounds 7f and 7i were examined in […] Balb/c mice (Table 5 and Figure 5). […] After the intravenous (i.v.) administration of 10 mg/kg, the maximum plasma concentration of compounds 7f and 7i were 5010.30 µg/l at 0.25 h and 7266.60 µg/l at 0.25 h, respectively. […] These PK parameters can be used to evaluate the drug-like properties of compounds 7f and 7i, so as to clarify their effectiveness and obtain better clinical treatment effects.
The absolute bioavailabilities of synthetic compounds (7f, 7i) were studied in female Bal b/c mice (Jinan Pengyue Experimental Animal Breeding Co., Ltd.). The mice were divided into four groups each having six mice and were collected at crossover time points, with three mice at each point. Pharmacokinetics (PK) was evaluated after a single dose of 30 mg/kg oral gavage (Oral) or 10 mg/kg intravenous (i.v.) administration. After oral administration and i.v. injection, blood samples were obtained from the suborbital veniplex at pre, 15 min, 30 min, 1 h, 2 h, 4 h, 6 h, 8 h, 12 h, 24 h (Oral) and pre, 5 min, 15 min, 30 min, 1 h, 2 h, 4 h, 6 h, 8 h, 12 h, 24 h (i.v.). Approximately 200 μl of blood was collected at each time point. All blood samples were put into plastic microcentrifuge tubes containing Heparin-Na as an anticoagulant. Microcentrifuge tubes with blood samples and anticoagulant were inverted several times for proper mixing of the tube contents to centrifugation for plasma. Plasma samples will be centrifuged at 12,000 rpm for 8 min at 4 °C to obtain the supernatant. The serum sample (25 μl) was treated with acetonitrile (100 μl), after which the mixture was vortex-mixed for 8 min and centrifuged at 10,000 rpm for 10 min at 4 °C. The supernatant layer was collected and then 50 μl of supernatant was injected for the UPLC-MS/MS analysis (details of the analytical method see Supporting information). […]
9. Analytical method of pharmacokinetics assay
Animal experiments were performed according to the institutional ethical guidelines on animal care and approved by the Institute Animal Care and Use Committee at Binzhou […]
Female Bal b/c mice (sourced from Jinan Pengyue Experimental Animal Breeding Co., Ltd.) approximately 6-8 weeks of age, and a weight of approximately 20-30 g. All of the mice were permitted with free access to standard pelleted food and water ad libitum and were kept in clean cages under controlled conditions (light/ dark cycle of 12 h, 60 ± 2% humidity, and 25 ± 1 °C). Before the day of administration, […] were fasted for 12 h but allowed water ad libitum.
9.2 Design of bioavailability study
The mice were divided into 4 groups each having six mice and were collected at crossover time points, with three mice at each point. Pharmacokinetics (PK) was […]
evaluated after a single dose of 30 mg/kg oral gavage (Oral) and 10 mg/kg intravenous […]
(i.v.) administration. The blood samples were obtained from the suborbital veniplex.
Each cohort had three mice, and plasma was collected at pre, 5 min, 15 min, 30 min, 1 […]
h, 2 h, 4 h, 6 h, 8 h, 12 h, and 24 h post dose for intravenous administration. Plasma […]
was collected at pre, 15 min, 30 min, 1 h, 2 h, 4 h, 6 h, 8 h, 12 h, and 24 h post dose for […]
9.3 Samples collection and quantitative analysis
Approximately 200 μL of blood was collected at each time point. All blood samples […]
were put into plastic microcentrifuge tubes containing Heparin-Na as anticoagulant. […]
microcentrifuge tubes with blood samples and anticoagulant were inverted several […]
times for proper mixing of the tube contents to centrifugation for plasma. Plasma […]
samples will be centrifuged at 12000 rpm for 8 min at 4 ℃ to obtain the supernatant.
The serum sample (25 μL) was treated with acetonitrile (100 μL), after which the […]
mixture was vortex-mixed for 8 min and centrifuged at 10000 rpm for 10 min at 4 ℃.
The supernatant layer was collected and then 50 μL of supernatant was injected for the […]
9.4 Chromatography and mass spectrometry conditions […]

[1] = iv, i.v. 10 mg/kg, read-out: Cmax i.v.
[2] = oral 30 mg/kg, read-out: Cmax Oral
[3] = iv, i.v. 10 mg/kg, mean n = 3, read-out: t1/2 i.v. (converted)
[4] = iv, i.v. 10 mg/kg, read-out: AUC0→∞ i.v.
[5] = oral 30 mg/kg, mean n = 3, read-out: t1/2 Oral (converted)
[6] = oral 30 mg/kg, read-out: AUC0→t Oral
[7] = oral 30 mg/kg, read-out: AUC0→∞ Oral
[8] = po, 30 mg/kg, oral 30 mg/kg, read-out: tmax Oral

| Cmax [1] [ng/mL] | Cmax [2] [ng/mL] | Tmax (iv, 10 mg/kg, i.v. 10 mg/kg, read-out: tmax i.v.) [h] | half-life [3] [h] | AUC(0-inf) [4] [ng·h/mL] | bioavailability [%] | half-life [5] [h] | AUC(0-t) [6] [ng·h/mL] | AUC(0-inf) [7] [ng·h/mL] | Tmax [8] [h] | AUC0→t/Dose i.v. (i.v. 10 mg/kg) | AUC0→∞/Dose i.v. (i.v. 10 mg/kg) | Cmax/Dose i.v. (i.v. 10 mg/kg) | AUC0→t/Dose Oral (oral 30 mg/kg) | AUC0→∞/Dose Oral (oral 30 mg/kg) | Cmax/Dose Oral (oral 30 mg/kg) | AUC(0-t) (iv, i.v. 10 mg/kg, read-out: AUC0→t i.v.) [ng·h/mL] | SMILES |
| --- | --- | --- | --- | --- | --- | --- | --- | --- | --- | --- | --- | --- | --- | --- | --- | --- | --- |
| 5010 | 7160 | 0.25 | 2.67 | 17300 | 87.7 | 4.12 | 45500 | 46200 | 2 | 1728.68 (µg/L*h)/(mg/kg) | 1731.60 (µg/L*h)/(mg/kg) | 501.03 (µg/L)/(mg/kg) | 1516.35 (µg/L*h)/(mg/kg) | 1541.08 (µg/L*h)/(mg/kg) | 238.76 (µg/L)/(mg/kg) |  | Cc1c(C#N)cccc1-c1cc(-c2cn(Cc3cccc(C#N)n3)nn2)nc(N)n1 [Compound 7f, 6-((4-(2-Amino-6-(3-cyano-2-methylphenyl)pyrimidin-4-yl)-1H-1,2,3-triazol-1-yl)methyl)picolinonitrile] |
| 7270 | 1010 |  | 2.19 | 4480 | 58.8 | 4.82 | 7900 | 8150 | 1 | 448.46 (µg/L*h)/(mg/kg) | 448.48 (µg/L*h)/(mg/kg) | 726.66 (µg/L)/(mg/kg) | 263.50 (µg/L*h)/(mg/kg) | 271.51 (µg/L*h)/(mg/kg) | 33.58 (µg/L)/(mg/kg) | 4480 | Cc1c(C#N)cccc1-c1cc(-c2cn(Cc3cccc(C(N)=O)n3)nn2)nc(N)n1 [Compound 7i, 6-((4-(2-Amino-6-(3-cyano-2-methylphenyl)pyrimidin-4-yl)-1H-1,2,3-triazol-1-yl)methyl)picolinamide] |
